Literature values, collected in patent US20060083700A1, “Use of a novel phytonutrient rich bioactive concentrate (Ri-ActiveTM) for the prevention and treatment of cardiovascular disease, diabetes and other health disorders” (NaturRi LLC, priority 2004, published 2006).

Tested on: hypercholesterolemic subjects
Conditions: 28 subjects, phases of 35 days

CC[C@H](C)C(=O)O[C@H]1C[C@@H](C)C=C2C=C[C@H](C)[C@H](CC[C@@H]3C[C@@H](O)CC(=O)O3)[C@H]21 [lovastatin]
reduction of LDL-C: 15%
reduction of serum total cholesterol: 13%
